Source: ChEMBL document CHEMBL3227967, “Quantitative structure-activity relationships in 1-aryl-2-(alkylamino)ethanol antimalarials” (J Med Chem, 1979)

Tested on: Plasmodium berghei
Assay: Antimalarial activity against Plasmodium berghei
Assay type: functional

Structure (SMILES)	log(1/C)
CCCN(CCC)CC(O)c1cc2ccc(C(F)(F)F)cc2c2cc(C(F)(F)F)ccc12 (centres undefined)	3.92
COc1cc2c(C(O)CC3CCCCN3)cc(-c3ccc(Cl)c(Cl)c3)cc2cc1Cl (centres undefined)	3.14
OC(CC1CCCCN1)c1cc2cccc(C(F)(F)F)c2c2cc(C(F)(F)F)ccc12 (centres undefined)	3.54
CCCCN(CCCC)CC(O)c1cc2cccc(Br)c2c2cc(C(F)(F)F)ccc12 (centres undefined)	3.52
CCCCCCNCC(O)c1cc2ccc(C(F)(F)F)cc2c2cc(C(F)(F)F)ccc12 (centres undefined)	3.78
CCCCCCCN(CCCCCCC)CC(O)c1cc2ccc(Cl)cc2c2ccncc12 (centres undefined)	2.31
Cc1cc(C)c2cc(C(O)CC3CCCCN3)c3ccc(C(F)(F)F)cc3c2c1 (centres undefined)	3.25
OC(CC1CCCCN1)c1cc2c(Br)cc(Br)cc2c2cc(C(F)(F)F)ccc12 (centres undefined)	4.2
CCCCN(CCCC)CC(O)c1cc2ccccc2c2cc(F)ccc12 (centres undefined)	2.58
CCCN(CCC)CC(O)c1cccc2c1cc(Cl)c1ccccc12 (centres undefined)	2.02
CCCCN(CCCC)CC(O)c1cc2cc(Cl)ccc2c2cc(Cl)ccc12 (centres undefined)	3.81
CCCCN(CCCC)CC(O)c1cc(-c2cccc(I)c2)nc2c(Cl)cc(Cl)cc12 (centres undefined)	3.16
OC(CC1CCCCN1)c1cc2cc(Cl)ccc2c2cc(Cl)ccc12 (centres undefined)	4.12
CCCCCCN(CCCCCC)CC(O)c1cc(-c2ccc(F)cc2)nc(-c2ccc(F)cc2)c1 (centres undefined)	2.58
CCCCCCN(CCCCCC)CC(O)c1cc(-c2ccc(Cl)c(Cl)c2)nc2cc(C(F)(F)F)ccc12 (centres undefined)	3.68
CCCCN(CCCC)CC(O)c1cc2cc(Br)ccc2c2ccccc12 (centres undefined)	3.5
CC(C)(C)NCC(O)c1cc2ccccc2c2ccccc12 (centres undefined)	2.09
CCCCCCN(CCCCCC)CC(O)c1cc(-c2ccc(Cl)cc2)nc2c(C)c(Cl)ccc12 (centres undefined)	3.85
OC(CNC1CCCCC1)c1cc2ccc(Cl)cc2c2cc(Cl)ccc12 (centres undefined)	3.36
CCCCNCC(O)c1cc(-c2ccc(C(F)(F)F)cc2)nc(C(F)(F)F)c1 (centres undefined)	4.08

Structure (SMILES)	log(1/C)
CCCCCCN(CCCCCC)CC(O)c1cc2ccc(Br)cc2c2cc(Br)ccc12 (centres undefined)	3.51
CCN(CC)CC(O)c1cc(-c2ccc(Br)cc2)nc(-c2ccc(Br)cc2)c1 (centres undefined)	3.13
CCCCCCCN(CCCCCCC)CC(O)c1cc2ccsc2c2cc(C(F)(F)F)ccc12 (centres undefined)	2.77
CCCCN(CCCC)CC(O)c1cc(-c2cccc(C(F)(F)F)c2)nc(-c2ccc(Cl)c(Cl)c2)c1 (centres undefined)	2.9
CCCCCCCN(CCCCCCC)CC(O)c1cc2cc(Cl)ccc2c2ccccc12 (centres undefined)	3.09
CCCCCCCN(CCCCCCC)CC(O)c1cc2c(Cl)cc(Cl)cc2c2ccsc12 (centres undefined)	3
CCCCN(CCCC)CC(O)c1cc(-c2ccc(OC)cc2)nc(-c2ccc(Cl)c(Cl)c2)c1 (centres undefined)	2.68
CN1CCN(CC(O)c2cc(-c3ccc(Cl)cc3)nc3c(Cl)cc(Cl)cc23)CC1 (centres undefined)	3.81
CCCCN(CCCC)CC(O)c1cc(-c2ccc(Cl)cc2)nc2ccc(Cl)cc12 (centres undefined)	3.8
Cc1ccc2nc(C(F)(F)F)cc(C(O)CC3CCCCN3)c2c1 (centres undefined)	2.84
CCCCN(CCCC)CC(O)c1cc(Oc2ccc(Cl)cc2)cc2c(Cl)cc(Cl)cc12 (centres undefined)	2.57
OC(CNC1CCCC1)c1cc(-c2ccc(Cl)cc2)nc2c(Cl)cc(Cl)cc12 (centres undefined)	3.53
CCCCCCCN(CCCCCCC)CC(O)c1cc2c(Cl)cc(Cl)cc2c2ncccc12 (centres undefined)	2.86
CCCN(CCC)CC(O)c1cc(-c2ccc(Cl)cc2)nc(-c2ccc(Cl)cc2)c1 (centres undefined)	3.3
OC(CC1CCCCN1)c1cc2cc(C(F)(F)F)cc(C(F)(F)F)c2c2ccccc12 (centres undefined)	4.19
CCCCCCN(CCCCCC)CC(O)c1cc(-c2ccc(Cl)c(Cl)c2)nc2cc(OC)ccc12 (centres undefined)	3.1
CCCCN(CCCC)CC(O)c1cc2c(Cl)c(Cl)ccc2c2cc(C(F)(F)F)ccc12 (centres undefined)	3.55
CCCCN(CCCC)CC(O)c1cc2cc(Br)ccc2c2cc(S(C)(=O)=O)ccc12 (centres undefined)	3.43
OC(CC1CCCCN1)c1cc2cc(Cl)c(Cl)cc2c2cc(C(F)(F)F)ccc12 (centres undefined)	4.19
